Measurements: US20070027201A1 (Wyeth, priority 2005, published 2007)

Assays:
progesterone receptor [1] = target: T1, progesterone receptor (Homo sapiens, UniProt P06401); assay: T47D alkaline phosphatase assay for progesterone receptor modulator (antagonist) activity; type: cell-based; set-up: Frozen T47D cells are thawed in a 37° C. water bath and diluted to 280,000 cells/mL in culture medium; endogenous in cells; host or cells: T47D cells; details: T47D cells, antagonist mode in the presence of 1 nM progesterone, 24 hours
T1 sequence (P06401 1-933): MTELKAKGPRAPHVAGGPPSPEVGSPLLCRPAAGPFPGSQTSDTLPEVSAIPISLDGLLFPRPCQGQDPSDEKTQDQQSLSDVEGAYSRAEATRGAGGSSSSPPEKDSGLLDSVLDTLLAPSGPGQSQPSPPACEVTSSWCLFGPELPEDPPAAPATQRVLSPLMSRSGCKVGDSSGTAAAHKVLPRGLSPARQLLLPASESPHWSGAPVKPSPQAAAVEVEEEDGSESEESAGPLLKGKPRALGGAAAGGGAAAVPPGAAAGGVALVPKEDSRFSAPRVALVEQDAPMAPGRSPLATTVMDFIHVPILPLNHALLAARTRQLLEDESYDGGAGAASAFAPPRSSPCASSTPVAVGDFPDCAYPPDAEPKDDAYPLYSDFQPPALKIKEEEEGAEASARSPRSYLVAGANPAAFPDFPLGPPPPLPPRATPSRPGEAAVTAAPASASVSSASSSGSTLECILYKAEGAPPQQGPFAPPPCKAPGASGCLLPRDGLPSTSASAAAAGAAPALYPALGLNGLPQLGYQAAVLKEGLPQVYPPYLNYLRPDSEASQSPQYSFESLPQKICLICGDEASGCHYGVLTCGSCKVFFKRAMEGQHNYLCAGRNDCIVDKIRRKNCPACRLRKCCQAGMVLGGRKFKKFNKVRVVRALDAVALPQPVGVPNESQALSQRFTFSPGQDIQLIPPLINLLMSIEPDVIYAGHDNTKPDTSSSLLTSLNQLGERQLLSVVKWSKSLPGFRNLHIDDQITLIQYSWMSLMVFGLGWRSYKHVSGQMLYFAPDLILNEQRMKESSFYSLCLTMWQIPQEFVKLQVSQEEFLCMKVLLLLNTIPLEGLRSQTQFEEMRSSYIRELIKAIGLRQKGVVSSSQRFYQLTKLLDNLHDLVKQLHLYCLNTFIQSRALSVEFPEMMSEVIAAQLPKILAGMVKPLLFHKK
Procedure: (§1) An assay was performed to identify compounds having progesterone receptor modulator activity. This assay identifies progestins or antiprogestins by determining a compound's effect on alkaline phosphatase activity in T47D cells.
(§2) Culture medium: DMEM:F12 (1:1) (GIBCO, BRL) supplemented with 5% (v/v) charcoal stripped fetal bovine serum (not heat-inactivated), 100 U/mL penicillin, 100 μg/mL streptomycin, and 2 mM the GlutaMax® reagent (GIBCO, BRL).
(§3) Alkaline phosphatase assay buffer: • I. 0.1M Tris-HCl, pH 9.8, containing 0.2% the Triton™ X-100 reagent • II. 0.1M Tris-HCl, pH 9.8, containing 4 mM p-nitrophenyl phosphate (Sigma).
(§4) Frozen T47D cells are thawed in a 37° C. water bath and diluted to 280,000 cells/mL in culture medium. To each well in a 96-well plate (Falcon, Becton Dickinson Labware), 180 μL of diluted cell suspension is added.
Twenty μL of reference or test compounds diluted in the culture medium is then added to each well. When testing for progestin antagonist activity, reference antiprogestins or test compounds are added in the presence of 1 nM progesterone. […]
Analysis of dose-response data. […] EC50 or IC50 values are calculated from the retransformed values. […]
Progesterone and trimegestone are reference progestins and RU486 is the reference antiprogestin. All reference compounds are run in full dose response curves and the EC50 and IC50 values are calculated. […]

progesterone receptor [2] = target: T1, progesterone receptor; assay: as above; type: cell-based; set-up: endogenous in cells; host or cells: T47D cells; details: T47D cells, antagonist mode in the presence of 1 nM progesterone, 24 hours
Procedure: as §1, §2, §3, §4
Twenty μL of reference or test compounds diluted in the culture medium is then added to each well. When testing for progestin antagonist activity, reference antiprogestins or test compounds are added in the presence of 1 nM progesterone. The cells are incubated at 37° C. in a 5% CO2/humidified atmosphere for 24 hours.
For high throughput screening, one concentration of each compound will be tested at 0.3 μg/mL. Based on an average molecular weight of 300 g/mol for the compounds in the library, the concentration is approximately 1 μM. Subsequently, active compounds will be tested in dose response assays to determine EC50 and IC50.
At the end of treatment, the medium is removed from the plate. Fifty μL of assay buffer I is added to each well. The plates are shaken in a titer plate shaker for 15 minutes. Then 150 μL of assay buffer II is added to each well. Optical density measurements are taken at 5 minute intervals for 30 minutes at a test wavelength of 405 nm.
Analysis of dose-response data. For reference and test compounds, a dose response curve is generated for dose (x-axis) vs. the rate of enzyme reaction (slope) (y-axis). Square root-transformed data are used for analysis of variance and nonlinear dose response curve fitting for both agonist and antagonist modes. Huber weighting is used to down-weight the effects of outliers. EC50 or IC50 values are calculated from the retransformed values. The JMP® software (SAS Institute, Inc.) is used for both one-way analysis of variance and non-linear dose response analysis in both single dose and dose response studies.
Progesterone and trimegestone are reference progestins and RU486 is the reference antiprogestin. All reference compounds are run in full dose response curves and the EC50 and IC50 values are calculated.
In the table provided above, the IC50 values show the relative progesterone receptor antagonist activity in this assay. Lower numbers are indicative of higher potency, i.e., greater PR antagonist activity. Further, the assay has a standard deviation of about ±6.

| IC50 (progesterone receptor [2]) [nM] | Compound | IC50 (progesterone receptor [1]) [nM] |
| --- | --- | --- |
| – | CN(C#N)c1ccc(-c2ccc(C#N)n2C)cc1 [Example 38] | 88.2 |
| 86.8 | CCCS(=O)(=O)Nc1ccc(-c2ccc(C#N)n2C)c(C#N)c1 [Example 76, N-[3-cyano-4-(5-cyano-1-methyl-1H-pyrrol-2-yl)phenyl]propane-1-sulfonamide] | – |
| 19 | CCS(=O)(=O)Nc1cc(F)c(-c2ccc(C#N)n2C)c(F)c1 [Example 80, N-[4-(5-cyano-1-methyl-1H-pyrrol-2-yl)-3,5-difluorophenyl]ethane-sulfonamide] | – |
| 16 | Cn1c(C#N)ccc1-c1c(F)cc(NS(C)(=O)=O)cc1F [Example 79, N-[4-(5-cyano-1-methyl-1H-pyrrol-2-yl)-3,5-difluorophenyl]-methanesulfonamide] | – |
